Biological target: not listed separately
Assay: Selectivity for the ET-A receptor over ETB receptor was observed in rat cerebellar membranes

Which Ki does the source give for `Cc1noc(NS(=O)(=O)c2cccc3c(N(C)C)cccc23)c1C` [BMS-182874] here?
The Ki was greater than 200 µM.

Biological target: Endothelin-1 receptor (Rattus norvegicus) (UniProt P26684)
Assay: Ability to inhibit [125I]ET1 binding to vascular smooth muscle (vsm)- A10 cells

Sequence of Endothelin-1 receptor (Rattus norvegicus) (P26684 whole entry, looked up): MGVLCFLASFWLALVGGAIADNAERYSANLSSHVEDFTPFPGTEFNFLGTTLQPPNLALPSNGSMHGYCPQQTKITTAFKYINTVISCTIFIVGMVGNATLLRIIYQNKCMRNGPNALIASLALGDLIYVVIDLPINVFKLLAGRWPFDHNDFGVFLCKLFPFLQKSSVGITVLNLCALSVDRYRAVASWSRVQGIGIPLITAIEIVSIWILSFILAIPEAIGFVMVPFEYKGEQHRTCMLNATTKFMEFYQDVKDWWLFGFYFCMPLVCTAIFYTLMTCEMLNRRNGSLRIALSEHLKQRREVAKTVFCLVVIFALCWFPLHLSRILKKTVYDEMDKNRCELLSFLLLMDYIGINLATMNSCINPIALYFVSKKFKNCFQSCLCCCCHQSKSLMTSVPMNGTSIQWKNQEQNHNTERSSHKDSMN

For `Cc1cc(NS(=O)(=O)c2ccc(N)cc2)on1` [4-Amino-N-(3-methyl-isoxazol-5-yl)-benzenesulfonamide], which IC50 is on record?
Its IC50 is 28 µM.

Which IC50 does the source give for `Cc1noc(NS(=O)(=O)c2ccc(NCc3ccccc3)cc2)c1C` [4-Benzylamino-N-(3,4-dimethyl-isoxazol-5-yl)-benzenesulfonamide] here?
The IC50 was 9.8 µM.

With `Cc1noc(NS(=O)(=O)c2ccc(C#N)cc2)c1C` [4-Cyano-N-(3,4-dimethyl-isoxazol-5-yl)-benzenesulfonamide] as the compound, how does the IC50 read?
The IC50 was greater than 32 µM.

For `Cc1noc(NS(=O)(=O)c2ccc(N(C)C)cc2)c1C` [4-Dimethylamino-N-(3,4-dimethyl-isoxazol-5-yl)-benzenesulfonamide], which IC50 is on record?
Its IC50 is 84 µM.

With `Cc1noc(NS(=O)(=O)c2cccc3c(CN(C)C)cccc23)c1C` [5-Dimethylaminomethyl-naphthalene-1-sulfonic acid (3,4-dimethyl-isoxazol-5-yl)-amide] as the compound, how does the IC50 read?
Its IC50 is 2.8 µM.

With `CCCNc1ccc(S(=O)(=O)Nc2onc(C)c2C)cc1` [N-(3,4-Dimethyl-isoxazol-5-yl)-4-propylamino-benzenesulfonamide] as the compound, how does the IC50 read?
Its IC50 is 27 µM.
